We go through 2 compounds from patent publication US20260060960A1, “GAMMA-SECRETASE INHIBITORS FOR USE IN THE TREATMENT OF INHERITED EPIDERMOLYSIS BULLOSA” (OSPEDALE PEDIATRICO BAMBINO GESU', priority 2022, published 2026).

Type in all cases: cell-based, human
The test system of data set [1] is primary fibroblast strains from healthy controls (NH-FBs). In words: MTT viability/proliferation assay on primary fibroblasts from healthy controls. An excerpt:
3-(4,5-dimethyl-2-thiazolyl)-2,5-diphenyl-2H-tetrazolium bromide (MTT) assay showing the impact of DAPT and PF-03084014 treatment on viability and proliferation rate of three primary fibroblast strains from healthy controls (NH-FBs). Absorbance values (Abs) were converted in percentage by using the following formula: AbsDAPT or PF-03084014×100/AbsREFERENCE WELLS. Data are presented as mean±standard deviation (SD) of at least eight technical replicates per condition. Cells treated with the vehicle DMSO (Panel A), and cells analyzed 24 h after seeding (T0) (Panel B) were considered as reference wells. NH-FBs were growth in DMEM medium containing 10% fetal bovine serum (FBS). […] Based on the results, it was chosen to use GSIs at 20 μM (black arrows) as it was the minimal drug concentration inducing a reduction of cell proliferation after 24 h of treatment. (Panel C) Immunoblotting analysis showing the protein levels of the cleaved and biologically active form of NOTCH1 receptor (N1-ICD, NOTCH1 intracellular domain) in nuclear extracts of primary fibroblasts from RDEB patients (RDEB-FBs, n=2) treated for 24 h with DAPT and PF-03084014 at different doses, ranging from 0.1 to 20 μM. Cells treated with the vehicle dimethyl sulfoxide (DMSO) were used as control. The reduced nuclear localization of N1-ICD indicates Notch pathway inhibition. […] Lamin B1 (LMNB1) and glyceraldehyde-3-phosphate dehydrogenase (GAPDH) served as loading controls for the nuclear and cytoplasmic protein fractions, respectively. **P-value <0.01, ***P<0.001.
GSIs halt the processing of Notch receptor, and, in turn, play a role as indirect inhibitors of Notch signaling cascade. Following their reconstitution at 10 mM in dimethyl sulfoxide (DMSO), GSI aliquots were stored at −20° C. until use, avoiding freeze-thaw cycles. GSI treatment was performed in DMEM containing 10% FBS, unless otherwise specified. According to previous reports, RDEB-FBs were serum-starved overnight in DMEM containing BSA prior to be treated with GSIs. Cells treated with the vehicle DMSO were used as controls. GSIs were used at different concentrations ranging from 1 to 20 μM depending on the assay. […]
Proliferation rate was assessed by 3-(4,5-dimethyl-2-thiazolyl)-2,5-diphenyl-2H-tetrazolium bromide (MTT) assay, following the manufacturer's protocol. […] Thereafter, cells were lysed in DMSO to dissolve formazan crystals and absorbance values were recorded at 560 nm with an Infinite F50 microplate reader (Tecan, Mannedorf, Switzerland). Values recorded 24 h after cell seeding, before GSI stimulation (TO) were used as reference. […]

The subject of data set [2] is primary fibroblasts from RDEB patients (RDEB-FBs). In words: MTT proliferation assay on RDEB fibroblasts. Conditions: 20 μM. As to the method: Proliferation rate was assessed by 3-(4,5-dimethyl-2-thiazolyl)-2,5-diphenyl-2H-tetrazolium bromide (MTT) assay, following the manufacturer's protocol. In brief, three different strains of RDEB-FBs were seeded at the density of 4×10^3 cells into 96-well plates. The day after, RDEB-FBs growing in DMEM containing 10% FBS were treated with 20 μM DAPT or PF-03084014 for 24 h or 48 h. Cells treated with the vehicle DMSO were used as controls. At the selected time points, medium was replaced with MTT solution and plates were incubated in a dry incubator at 37° C. for 3 h. Thereafter, cells were lysed in DMSO to dissolve formazan crystals and absorbance values were recorded at 560 nm with an Infinite F50 microplate reader (Tecan, Mannedorf, Switzerland). Values recorded 24 h after cell seeding, before GSI stimulation (TO) were used as reference.
(Tetrazolium dyes change colour on reduction, which living cells bring about.)

Data set [3] has the same test system. In words: Oris cell migration assay. Conditions: 24 h, vs non-treated cells. As to the method: Migration rate was evaluated using an Oris™ Cell Migration Assay Kit (Platypus Technologies, Madison, WI, USA) following the manufacturer's instructions. Briefly, cells were seeded at high density (5×10^4 per well) onto 96-well plates containing medical-grade silicon stoppers that restrict cell seeding to an outer annular region of the well, and serum starved overnight. The day after, silicon stoppers were removed and cells were transfected. Analysis of cell migration into the detection zone was performed after Giemsa stain (Sigma-Aldrich). The detection zone was photographed with a Leica DMi8 microscope (Leica Microsystems, Wetzlar, Germany) at 0 h (premigration controls) and 24 h after stopper removal. ImageJ was used to calculate the percentage of cell-free area. The cell migration assay of RDEB-FBs and NH-FBs grown under basal conditions was performed following the same protocol.

Data set [4] shares this test system. In words: Collagen deposition analysis (Sircol assay). As to conditions: 96 h. On the procedure:
The amount of collagens deposited into the extracellular matrix (ECM) was measured by using the Sirius red staining-based Sircol assay (Biocolor, Carrickfergus, Northern Ireland-UK). Briefly, two RDEB-FB strains were seeded into 12-well plates (55.000 cells/well), and growth for two days until they reached about 80-90% confluence. Then, cells were treated for 96 h with PF-03084014 (5 μM), DAPT (20 μM) or the corresponding amount of vehicle DMSO in serum-free media. GSI stimulation was performed in the presence or in the absence of TGF-β1 (2 ng/mL) as inducer of collagen synthesis. In order to further improve collagen deposition, RDEB-FB cultures were daily supplemented with 50 μg/mL of L-ascorbic acid (Merck) and 100 μg/mL of dextran sulfate 500 kDa (Merck). ECM collagens were solubilized by scraping culture wells with a solution of 0.5 M acid acetic containing pepsin at 0.1 mg/mL (Pepsin […].4.23.1, product code: […], Merck) and incubated overnight at 4° C. in agitation. The day after, ECM lysates were neutralized with 100 μL of Acid Neutralizing Reagent (Biocolor), and concentrated by overnight incubation in ice-water mix, in the presence of 200 μL of Isolation & Concentration Reagent (Biocolor). Sample absorbance values were measured by BioTek Synergy H1 microplate reader (Agilent, Santa Clara, CA, USA) at 560 nm and analyzed through the GEN5TM software v. 3.04 (Agilent).

Regarding `C[C@H](NC(=O)Cc1cc(F)cc(F)c1)C(=O)N[C@H](C(=O)OC(C)(C)C)c1ccccc1` [DAPT, N—[N-(3,5-difluorophenacetyl)-L-alanyl]-S-phenylglycine t-butyl ester], the “proliferation rate (MTT)” value in data set [1] (20 and 40 μM, 48 h, vs DMSO) is given as “slight but statistically significant reduction of proliferation rate”. Also, the “cell proliferation (MTT)” value in data set [2] (24 and 48 h) was “didn't display variations in cell proliferation”. Also, the “ability to migrate into the cell-free area” value in data set [3] was “significant decrease of RDEB-FB ability to migrate”. For the same compound, the “collagen deposition into the ECM” value in data set [4] (20 μM, with or without TGF-β1) is reported as “DAPT-mediated reduction of collagen deposition in each experimental condition, though the difference was moderate”.
As to `CCC[C@H](N[C@H]1CCc2cc(F)cc(F)c2C1)C(=O)Nc1cn(C(C)(C)CNCC(C)(C)C)cn1` [PF-03084014, (S)-2-((S)-5,7-difluoro-1,2,3,4-tetrahydronaphthalen-3-ylamino)-N-(1-(2-methyl-1-(neopentylamino)propan-2-yl)-1H-imidazol-4-yl)pentanamide], the “cell viability (MTT) compared to cells before GSI treatment (T0)” value in data set [1] (40 μM) is reported as “reduction of cell viability”. Besides, in data set [1] (5-20 μM), the “fibroblast proliferation / cytotoxicity (MTT)” value was “affected fibroblast proliferation in a time- and dose-dependent manner, in the absence of overt cytotoxicity”. Besides, in data set [1] (20 and 40 μM at 24 h, 5 and 10 μM at 48 h, vs DMSO), the “effects on proliferation rate (MTT)” value was “observed after 24 h of treatment, and became more evident after 48 h of treatment, even at low doses (5 and 10 μM)”. In addition, the “proliferation rate (MTT)” value in data set [2] (48 h, vs untreated cells) is reported as “statistically significant reduction of RDEB-FB proliferation rate”. The “ability to migrate into the cell-free area” value in data set [3] is listed as “significant decrease of RDEB-FB ability to migrate”. Moreover, the “reduction of pepsin-soluble collagens deposited into the ECM” value in data set [4] (5 μM, absence or presence of TGF-β1, vs untreated) is 50%.
